According to patent US20110294836A1, “ARYL GPR119 AGONISTS AND USES THEREOF” (METABOLEX, INC., priority 2008, published 2011):

Target: T1, GPR119 (Homo sapiens, UniProt Q8TDV5)
T1 construct: expressed in transfected cells
T1 sequence (Q8TDV5 1-335): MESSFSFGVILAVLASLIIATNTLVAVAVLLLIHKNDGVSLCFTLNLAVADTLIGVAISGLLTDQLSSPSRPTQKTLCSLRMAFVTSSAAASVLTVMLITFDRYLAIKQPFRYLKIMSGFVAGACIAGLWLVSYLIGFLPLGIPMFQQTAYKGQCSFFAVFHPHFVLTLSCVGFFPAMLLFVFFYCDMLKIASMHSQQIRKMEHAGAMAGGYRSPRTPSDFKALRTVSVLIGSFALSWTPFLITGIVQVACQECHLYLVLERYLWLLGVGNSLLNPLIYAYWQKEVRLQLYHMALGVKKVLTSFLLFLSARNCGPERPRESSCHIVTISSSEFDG
Assay: Stimulation of cAMP in CHO cell line stably expressing GPR119 (HTRF cAMP assay)
Type: cell-based
Conditions: GPR119 stably expressing CHO cells, 30 minutes, relative to maximal activity (100%) of 5-Ethyl-2-{4-[4-(4-tetrazol-1-yl-phenoxymethyl)-thiazol-2-yl]-piperidin-1-yl}-pyrimidine
Protocol: This assay was developed using a stable cell line expressing GPR119, generated as follows. GPR119 (co-pending, co-owned patent application U.S. Ser. No. 11/964,461) was cloned into Gateway pDEST 40vector (Invitrogen), using the Gateway cloning system (invitrogen) according to the manufacturer's instructions. A stable cell line was generated by transfecting a 10 cm plate of CHO cells (source) with Bug of this construct using Transit-CHO transfection kit (Minis). CHO cells were plated the day prior to transfection at a density of 3,000,000 cells/plate. Clones were selected using the antibiotic G418 at 500 ug/ml. 23 clones were picked and assayed for the expression of the receptor by measuring changes in intracellular cAMP levels in response to a known GPR119 agonist.
To measure cAMP activity in response to GPR119 agonist, the clones were plated in 96 well plates at 17500 cells per well. On the day after plating, cells were incubated with the GPR119 agonist at 10 μM for 30 minutes in Ham's F12 Media (Gibco) with 0.04% DMSO. cAMP was measured using the cAMP dynamic kit from Cis Bio (Bedford, Mass.) according to the manufacturer's instructions. Briefly, cells were lysed, and cAMP levels determined by competitive immunoassay using D2 labeled cAMP, and europium cryptate tagged anti cAMP antibody. When in close proximity, the D2 and europium cryptate undergo fluorescence resonance energy transfer (FRET), which is measured as a fluorescence ratio (665 nm/620 nm). Unlabelled cAMP in the cell lysate competed with the D2 labeled cAMP for the europium crypate labeled antibody. The resulting decrease in FRET signal corresponded to intracellular cAMP levels. Fluorescence was read on a BMG Labtech PHERAstar, software version 1.50.
The clone with the greatest response to GPR119 agonist was selected for the screening assay.
Compounds were dissolved in 100% DMSO to a concentration of […] to provide stock solutions. To determine activity against GPR119, compounds were incubated with GPR119 stably expressing cells (described above), at 6-8 concentrations ranging from 0.00003 to 10 micromolar, in 96 well plates, in 50 ul of Ham's F12 media for 30 minutes. Cells were plated at 17500 cells per well 1 day before running the assay. All compounds were also screened against the parental CHO cells. cAMP was measured using the cAMP dynamic kit from Cis Bio (Bedford, Mass.), according to the manufacturer's instructions. Briefly, cells were lysed and cAMP levels determined by competitive immunoassay using D2 labeled cAMP, and europium cryptate tagged anti cAMP antibody. When in close proximity, the D2 and europium cryptate undergo fluorescence resonance energy transfer (FRET), which is measured as a fluorescence ratio (665 nm/620 nm). Unlabelled cAMP in the cell lysate competed with the D2 labeled cAMP for the europium crypate labeled antibody. The resulting decrease in FRET signal corresponded to intracellular cAMP levels.
To determine percent activity for a tested compound, the FRET signal value obtained at a particular concentration are compared to the Maximal FRET signal value obtained for 5-Ethyl-2-{4-[4-(4-tetrazol-1-yl-phenoxymethyl)-thiazol-2-yl]-piperidin-1-yl}-pyrimidine. The maximal activity of 5-Ethyl-2-{4-[4-(4-tetrazol-1-yl-phenoxymethyl)-thiazol-2-yl]-piperidin-1-yl}-pyrimidine is designated as 100% activity. Typically, the concentration of 5-Ethyl-2-{4-[4-(4-tetrazol-1-yl-phenoxymethyl)-thiazol-2-yl]-piperidin-1-yl}-pyrimidine in the assay was approximately 0.1 μM. The synthesis of 5-Ethyl-2-{4-[4-(4-tetrazol-1-yl-phenoxymethyl)-thiazol-2-yl]-piperidin-1-yl}-pyrimidine is disclosed in co-owned pending U.S. patent application Ser. No. 11/964,461, herein incorporated by reference. Activities of compounds in Table 1 below are expressed as % activity at 3 μM compound compared to the maximal activity of 5-Ethyl-2-{4-[4-(4-tetrazol-1-yl-phenoxymethyl)-thiazol-2-yl]-piperidin-1-yl}-pyrimidine at 3 μM.

| % Activity at 3 μM Compound [%] | Structure (SMILES) |
| --- | --- |
| 73 | CC(C)(C)OC(=O)N1CCC(c2cc(COc3ccc(-n4cnnn4)cc3F)ccn2)CC1 [Example 14, tert-Butyl 4-(4-((2-fluoro-4-(1H-tetrazol-1-yl)phenoxy)methyl)pyridin-2-yl)piperidine-1-carboxylate] |
| 33 | CC(C)c1noc(C(=O)N2CCC(c3cccc(COc4ccc(S(C)(=O)=O)cc4F)n3)CC2)n1 [Example 13, (4-(6-((2-fluoro-4-(methylsulfonyl)phenoxy)methyl)pyridin-2-yl)piperidin-1-yl)(3-isopropyl-1,2,4-oxadiazol-5-yl)methanone] |
| 61 | CC(C)(C)OC(=O)N1CCC(c2cccc(COc3ccc(-n4cnnn4)cc3F)n2)CC1 [Example 4, tert-Butyl 4-(6-((2-fluoro-4-(1H-tetrazol-1-yl)phenoxy)methyl)pyridin-2-yl)piperidine-1-carboxylate] |
| 59 | CC(C)(C)OC(=O)N1CCC(c2cccc(COc3ccc(S(C)(=O)=O)cc3F)n2)CC1 [Example 2, tert-Butyl 4-(6-((2-fluoro-4-(methylsulfonyl)phenoxy)methyl)pyridin-2-yl)piperidine-1-carboxylate] |
| 63 | Fc1cc(-n2cnnn2)ccc1OCc1cccc(C2CCN(c3ncc(C(F)(F)F)cn3)CC2)n1 [Example 6, 2-(4-(6-((2-fluoro-4-(1H-tetrazol-1-yl)phenoxy)methyl)pyridin-2-yl)piperidin-1-yl)-5-(trifluoromethyl)pyrimidine] |
| 59 | CCc1cnc(N2CCC(c3cccc(OCc4ccc(S(C)(=O)=O)cc4)c3)CC2)nc1 [Example 10, 5-ethyl-2-(4-(3-(4-(methylsulfonyl)benzyloxy)phenyl)piperidin-1-yl)pyrimidine] |
| 70 | CC(C)(C)OC(=O)N1CCC(c2nccc(COc3ccc(-n4cnnn4)cc3F)n2)CC1 [Example 7, tert-Butyl 4-(4-((2-fluoro-4-(1H-tetrazol-1-yl)phenoxy)methyl)pyrimidin-2-yl)piperidine-1-carboxylate] |
| 61 | CC(C)(C)OC(=O)N1CCC(c2cccc(OCc3ccc(S(C)(=O)=O)cc3)c2)CC1 [Example 9, tert-Butyl 4-(3-(4-(methylsulfonyl)benzyloxy)phenyl)piperidine-1-carboxylate] |
| 73 | CCc1cnc(N2CCC(c3cccc(COc4ccc(-n5cnnn5)cc4F)n3)CC2)nc1 [Example 5, 5-ethyl-2-(4-(6-((2-fluoro-4-(1H-tetrazol-1-yl)phenoxy)methyl)pyridin-2-yl)piperidin-1-yl)pyrimidine] |
